Molecules are shown by their SMILES. Where two headings read alike, the source gives them in different places. Starred links: 1 amine or outer side, 2 acyl side, 3 side chain; linkers in the order of their positions; H or OH if unused. Positions of bridges follow the written chain, without caps; N, C: chain ends. Non-standard residues stand in square brackets, D forms with d. Residues, ends and D or L forms follow the SMILES beside them. Chains are numbered I, II in the order given. Actinocin(1to9) = Cc1c2oc3c(C)ccc(C(=O)[*:2])c3nc-2c(C(=O)[*:1])c(N)c1=O; Actinocin(9to1) = Cc1c2oc3c(C)ccc(C(=O)[*:1])c3nc-2c(C(=O)[*:2])c(N)c1=O; Pro(4-oxo) = O=C1CN[C@H](C(=O)O)C1; NMeV = CN[C@H](C(=O)O)C(C)C; Sar = CNCC(=O)O

Data set [1] concerns the target T1, human alanine aminopeptidase (HsAPN) (Homo sapiens, UniProt P15144).
T1 construct: purchased R&D Systems
Nature of the data set: Inhibition of recombinant human APN, fluorogenic substrate Ala-AMC. In kind it is biochemical. To be noted: for mechanism of inhibition of HsAPN: from Lineweaver-Burk and Dixon plots. From the text: (§1) Actinomycin D was purchased as a lyophilized powder from Sigma-Aldrich (Poznan, Poland), Actinomycin X2 was purchased form Adipogen (Liestal, Switzerland). Actinocine and Questiomycin A were synthesized according to a previously described procedure. Recombinant human APN and MetAP2 were purchased as a lyophilized powder from R&D Systems (Minneapolis, USA). Fluorogenic substrates Ala-AMC (L-alanine-4-methylcoumaryl-7-amide) and Met-AMC (L-methionine-4-methylcoumaryl-7-amide) were purchased from PeptaNova (Sandhausen, Germany). Spectrofluorometry was performed on a Spectra MAX Gemini EM fluorimeter (Molecular Devices, Sunnyvale, USA) in a 96-well plate format (Excitation = 355 nm, Emission = 460 nm). Calculations of the kinetic parameters were performed using the SoftMax Pro, GraphPad Prism and Microsoft Excel programs.
(§2) Recombinant human APN enzyme was dissolved in 50 mM Tris-HCl buffer (pH = 7.0) and used directly in the kinetic experiments. Recombinant human MetAP2 was obtained as a lyophilized powder from R&D Systems. The enzyme was dissolved in 100 mM Tris-maleate buffer containing 0.1 mM CoCl2, 100 mM NaCl and 0.075 % v/v albumin at pH = 7.5 and incubated for 30 minutes. After this activation, the enzyme was used directly in the kinetic experiments.
(§3) The inhibitors were screened against human APN and human MetAP2 at 37°C in the assay buffer as described above. For the steady-state measurements, the enzymes were preincubated for 30-60 min at 37°C with an inhibitor before adding the substrate (Ala-AMC, 40 μM for human APN or Met-AMC and 50 μM for MetAP2) to the wells. For the initial state measurements, the enzymes were preincubated for 15-30 min at 37°C before adding the substrate and inhibitor to the wells. The following conditions were used: (1) total volume 100 μL, (2) eight different inhibitor concentrations, and (3) enzyme concentration of 0.3 nM for human APN and 1 nM for MetAP2. The release of the AMC fluorophore was monitored. The linear portion of the progress curve was used to calculate the velocity. hPhePCH2Phe for APN and ebselen for MetAP2 were used as a positive control. The inhibition mechanism was determined from the Lineweaver-Burk and Dixon plot (Figure 2B and 2D). The IC50 values were calculated from the reaction velocity to inhibitor concentration plot fitted to the equation log[I] vs. response. The Ki values were equal to the IC50 for non-competitive inhibitors and were calculated for competitive inhibitors using the following equation: Ki = (IC50-[E]/2)/ (1 + ([S]/Km)), where the IC50 is the concentration of the inhibitor that effected 50% inhibition, [S] and Km are the substrate concentration and Michaelis constant in the absence of inhibitor, respectively, and [E] is the concentration of the enzyme.

In data set [2] the target is T2, human methionine aminopeptidase type 2 (HsMetAP2) (Homo sapiens, UniProt P50579).
T2 construct: purchased R&D Systems
Nature of the data set: Inhibition of recombinant human MetAP2, fluorogenic substrate Met-AMC. In kind it is biochemical. Conditions: for mechanism of inhibition of HsMetAP2: from Lineweaver-Burk and Dixon plots.
From the text: as §1, §2, §3

Data set [3] relates to human acute B- and T-lymphoblastic leukemia, cervix carcinoma and larynx carcinoma. More on the design: method as in PMID 12431048. Conditions: read-out: IC50 cytotoxicity; cited from earlier work.
In data set [4] the test system is human leukemia cell line HL-60. Conditions: read-out: LC50 (lethal concentration for a half of population), cytotoxicity HL-60; cited from earlier work.
Setting [5] is: TRIS buffer, 37°C, average with standard deviation, at least three experiments, read-out: IC50 HsAPN.
Where [6] appears, read: TRIS buffer, 37°C, calculated by Cheng-Prusoff equations for non-competitive and competitive inhibitors, average with standard deviation, at least three experiments, read-out: Ki HsAPN.
[7] abbreviates: TRIS buffer, 37°C, average with standard deviation, at least three experiments, read-out: IC50 HsMetAP.
The mark [8] stands for this setting: TRIS buffer, 37°C, calculated by Cheng-Prusoff equations for non-competitive and competitive inhibitors, average with standard deviation, at least three experiments, read-out: Ki HsMetAP.
The mark [9] stands for this setting: more effective than Actinomycin D/X2.

T1 sequence (P15144 whole entry): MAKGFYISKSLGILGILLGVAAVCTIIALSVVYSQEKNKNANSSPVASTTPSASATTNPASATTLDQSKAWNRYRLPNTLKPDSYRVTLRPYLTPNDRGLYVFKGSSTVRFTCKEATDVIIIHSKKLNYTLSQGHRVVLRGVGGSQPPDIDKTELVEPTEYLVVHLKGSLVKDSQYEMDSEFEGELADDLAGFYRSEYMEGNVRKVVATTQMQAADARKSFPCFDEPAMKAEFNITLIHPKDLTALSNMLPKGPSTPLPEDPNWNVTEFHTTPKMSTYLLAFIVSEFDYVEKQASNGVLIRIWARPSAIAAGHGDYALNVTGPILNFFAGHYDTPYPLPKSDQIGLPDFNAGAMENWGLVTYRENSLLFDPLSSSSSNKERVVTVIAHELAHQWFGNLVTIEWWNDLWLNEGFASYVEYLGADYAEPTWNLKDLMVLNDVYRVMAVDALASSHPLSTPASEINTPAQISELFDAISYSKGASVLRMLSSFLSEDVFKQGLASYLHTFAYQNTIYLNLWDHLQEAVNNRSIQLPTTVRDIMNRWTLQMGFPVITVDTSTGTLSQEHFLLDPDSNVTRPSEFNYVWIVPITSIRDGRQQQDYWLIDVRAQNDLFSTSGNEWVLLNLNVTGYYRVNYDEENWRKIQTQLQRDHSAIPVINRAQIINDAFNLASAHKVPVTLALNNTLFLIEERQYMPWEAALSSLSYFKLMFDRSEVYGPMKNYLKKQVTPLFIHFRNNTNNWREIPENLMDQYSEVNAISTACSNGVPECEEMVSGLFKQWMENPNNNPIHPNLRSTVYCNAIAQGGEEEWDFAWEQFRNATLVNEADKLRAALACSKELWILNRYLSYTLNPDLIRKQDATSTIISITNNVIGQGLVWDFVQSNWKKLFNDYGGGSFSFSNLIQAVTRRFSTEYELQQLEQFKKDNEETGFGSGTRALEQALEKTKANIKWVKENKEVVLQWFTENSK
T2 sequence (P50579 whole entry): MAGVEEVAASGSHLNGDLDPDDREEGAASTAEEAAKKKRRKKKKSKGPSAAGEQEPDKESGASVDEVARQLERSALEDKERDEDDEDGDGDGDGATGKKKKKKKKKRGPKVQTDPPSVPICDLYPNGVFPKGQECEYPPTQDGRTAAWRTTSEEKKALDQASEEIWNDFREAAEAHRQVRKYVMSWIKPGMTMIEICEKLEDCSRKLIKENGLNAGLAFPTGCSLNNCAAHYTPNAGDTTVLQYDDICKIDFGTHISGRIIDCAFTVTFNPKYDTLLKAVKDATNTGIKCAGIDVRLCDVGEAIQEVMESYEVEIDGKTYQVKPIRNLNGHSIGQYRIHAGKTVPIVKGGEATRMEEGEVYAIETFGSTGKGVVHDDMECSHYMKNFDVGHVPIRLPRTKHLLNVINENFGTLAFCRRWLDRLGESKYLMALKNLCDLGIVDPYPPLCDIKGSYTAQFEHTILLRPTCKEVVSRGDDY

For `Cc1c2oc3c(C)ccc(C(=O)N[C@@H]4C(=O)N[C@H](C(C)C)C(=O)N5CCC[C@H]5C(=O)N(C)CC(=O)N(C)[C@@H](C(C)C)C(=O)O[C@@H]4C)c3nc-2c(C(=O)N[C@@H]2C(=O)N[C@H](C(C)C)C(=O)N3CCC[C@H]3C(=O)N(C)CC(=O)N(C)[C@@H](C(C)C)C(=O)O[C@@H]2C)c(N)c1=O` [Actinomycin D] (I: T[dV]P[Sar][NMeV] / II: T[dV]P[Sar][NMeV]; ester I:1-I:C, II:1-II:C; linker I:N-II:N via Actinocin(9to1)), in data set [1], the IC50 (commonly the concentration that inhibits the measured activity by half) was 11.9 ± 1.1 µM, the Ki (commonly the equilibrium dissociation constant of an inhibitor or competing ligand from its target) came to 11.9 ± 1.1 µM and the “mechanism of inhibition of HsAPN” value is reported as “non-competitive”. In data set [2], the concentration for half-maximal inhibition (IC50) came to 7.37 ± 0.56 µM, the inhibitory constant (Ki) is 7.37 ± 0.56 µM and the “mechanism of inhibition of HsMetAP2” value is listed as “non-competitive”. The half-maximal inhibitory concentration (IC50) in data set [3] was 0.001 to 0.008 µM.
For the compound `Cc1c2oc3c(C)ccc(C(=O)N[C@@H]4C(=O)N[C@H](C(C)C)C(=O)N5CCC[C@H]5C(=O)N(C)CC(=O)N(C)[C@@H](C(C)C)C(=O)O[C@@H]4C)c3nc-2c(C(=O)N[C@@H]2C(=O)N[C@H](C(C)C)C(=O)N3CC(=O)C[C@H]3C(=O)N(C)CC(=O)N(C)[C@@H](C(C)C)C(=O)O[C@@H]2C)c(N)c1=O` [Actinomycin X2, reference compound] (I: T[dV][Pro(4-oxo)][Sar][NMeV] / II: T[dV]P[Sar][NMeV]; ester I:1-I:C, II:1-II:C; linker I:N-II:N via Actinocin(1to9)), in data set [1], the IC50 is 12.2 ± 1.4 µM, the inhibition constant (Ki) was 12.2 ± 1.4 µM and the “mechanism of inhibition of HsAPN” value was “non-competitive”. The CC50 in data set [4] was 0.008 µM. Also, in data set [2], the IC50 was 8.33 ± 0.75 µM, the Ki amounted to 8.33 ± 0.75 µM and the “mechanism of inhibition of HsMetAP2” value is “non-competitive”.
With `Nc1cc2nc3ccccc3oc-2cc1=O` [Questiomycin A], the IC50 in data set [1] (setting [5]) is 63 ± 3.2 µM; in data set [2] (setting [7]) it was 34.9 ± 3.2 µM; in data set [3], 1 to 3 µM. Besides, the Ki in data set [1] (setting [6]) is 52.5 ± 2.7 µM; in data set [2] (setting [8]), 30.4 ± 3.2 µM. The “mechanism of inhibition of HsAPN” value in data set [1] is recorded as “competitive”. The “times less effective, HsAPN” value in data set [1] (in contrast to Actinocin) was 10 times. For the same compound, the “decrease in activity for HsAPN compared to the lead compound” value in data set [1] (lead compound = Actinomycin D) is “five-fold”. Also, in data set [2], the “mechanism of inhibition of HsMetAP2” value is “competitive”. The “times less effective, HsMetAP2” value in data set [2] (in contrast to Actinocin) was found to be 10 times. The “decrease in activity for HsMetAP2 compared to the lead compound” value in data set [2] (lead compound = Actinomycin D) is “five-fold”.
Take `Cc1c2oc3c(C)ccc(C(=O)O)c3nc-2c(C(=O)O)c(N)c1=O` [Actinocin]: the figures for the IC50 in data set [1] (setting [5]) and in data set [2] (setting [7]) were 7.25 ± 1.2 µM and 2.34 ± 0.62 µM, respectively. Moreover, the Ki was 6.04 ± 0.51 µM in data set [1] (setting [6]) and 2.04 ± 0.23 µM in data set [2] (setting [8]). In addition, the “mechanism of inhibition of HsAPN” value in data set [1] was “competitive”. Also, the “effectiveness relative to Actinomycin D/X2, HsAPN” value in data set [1] (setting [9]) is recorded as “twice as effective”. The “mechanism of inhibition of HsMetAP2” value in data set [2] is recorded as “competitive”. Moreover, the “effectiveness relative to Actinomycin D/X2, HsMetAP2” value in data set [2] (setting [9]) was “four times as effective”.

The record behind these values is article PMC6047675, “Neutral metalloaminopeptidases APN and MetAP2 as newly discovered anticancer molecular targets of actinomycin D and its simple analogs” (Oncotarget, 2018).
